36 compounds from patent publication US7582645B2, “Pyrimidine derivatives for treatment of hyperproliferative disorders” (Bayer Pharmaceuticals Corporation, priority 2003, dated 2009) can be followed below.

The structures appear in SMILES notation. Where a name gives a salt, the structure may show the parent alone.

Usually IC50 stands for the concentration needed to halve the response being measured. A lower IC50 goes with greater potency.

The first experiment concerns HCT116 cells. As to the kind of experiment: HCT116 cytotoxic activity assay (Alamar Blue, 72 h). Type of experiment: cell-based. The conditions noted are these: Homo sapiens, HCT-116, 72 h compound exposure, greater than 500 nM but less than or equal to 2 μM. How it is done: Representative compounds of this invention were tested for cytotoxicity using the above-described assay procedure with the following results: […]
`N#Cc1cc(Oc2ccc(Nc3cc(-c4ccccc4N)nc(N)n3)cc2)ccn1` [Example 243, 4-(4-{[2-amino-6-(2-aminophenyl)pyrimidin-4-yl]amino}phenoxy) pyridine-2-carbonitrile] had an IC50 of 500 to 2000 nM.

In turn, `CCN(CC)C(=O)NCc1cc(Oc2ccc(Nc3cc(-c4ccccc4)nc(N)n3)cc2)ccn1` [Example 42, N′-[(4-{4-[(2-amino-6-phenylpyrimidin-4-yl)amino]phenoxy}pyridin-2-yl)methyl]-N,N-diethylurea] had an IC50 of 500 to 2000 nM.

As to `N#Cc1cc(Oc2ccc(Nc3cc(-c4ccc(F)cc4F)nc(N)n3)cc2)ccn1` [Example 247, 4-(4-{[2-amino-6-(2,4-difluorophenyl)pyrimidin-4-yl]amino}phenoxy)pyridine-2-carbonitrile], the IC50 lay in the range of 500 to 2000 nM.

As to `COc1ccc(OC)c(-c2cc(Nc3cccc(Oc4ccnc(C(N)=O)c4)c3)nc(N)n2)c1` [Example 300, 4-(3-{[2-amino-6-(2,5-dimethoxyphenyl)pyrimidin-4-yl]amino}phenoxy)pyridine-2-carboxamide], the IC50 lay in the range of 500 to 2000 nM.

`NC(=O)c1cc(Oc2ccc(Nc3cc(-c4cc(F)cc(F)c4)nc(N)n3)cc2)ccn1` [Example 279, 4-(4-{[2-amino-6-(3,5-difluorophenyl)pyrimidin-4-yl]amino}phenoxy)pyridine-2-carboxamide]: the IC50 was 500 to 2000 nM.

The compound `Nc1nc(Nc2ccc(Oc3cncnc3)cc2)cc(-c2ccccc2)n1` [Example 61, 6-phenyl-N4*-[4-(pyrimidin-5-yloxy)phenyl] pyrimidine-2,4-diamine] returned an IC50 of 500 to 2000 nM.

Compound `COc1ccncc1-c1cc(Nc2ccc(Oc3ccnc(C(F)(F)F)c3)cc2)nc(N)n1` [Example 203, 6-(4-methoxypyridin-3-yl)-N4*-(4-{[2-(trifluoromethyl)pyridin-4-yl]oxy}phenyl)pyrimidine-2,4-diamine] showed an IC50 of 500 to 2000 nM.

With `NC(=O)c1cc(Oc2ccc(Nc3cc(-c4ccc(F)cc4)nc(N)n3)cc2)ccn1` [Example 73, 4-(4-{[2-amino-6-(4-fluorophenyl)pyrimidin-4-yl]amino}phenoxy) pyridine-2-carboxamide], the IC50 was in the range of 500 to 2000 nM.

In turn, `N#Cc1ccc(Oc2ccc(Nc3cc(-c4ccccc4)nc(N)n3)cc2)cc1` [Example 68, 4-{4-[(2-amino-6-phenylpyrimidin-4-yl)amino]phenoxy} benzonitrile] displayed an IC50 of 500 to 2000 nM.

Regarding `COCCN(CCOC)c1ccnc(Oc2ccc(Nc3cc(-c4ccccc4)nc(N)n3)cc2)c1` [Example 109, N4*-[4-({4-[bis(2-methoxyethyl)amino]pyridin-2-yl}oxy)phenyl]-6-phenylpyrimidine-2,4-diamine], the IC50 lay within 500 to 2000 nM.

Staying with this experiment, now noted: Homo sapiens, HCT-116, 72 h compound exposure, greater than 2 μM.
In turn, `NC(=O)c1cc(Oc2ccc(Nc3cc(-c4ccc(-c5ccccc5)c(F)c4)nc(N)n3)cc2)ccn1` [Example 260, 4-(4-{[2-amino-6-(2-fluorobiphenyl-4-yl)pyrimidin-4-yl]amino}phenoxy) pyridine-2-carboxamide] came in with an IC50 of more than 2000 nM.

Take `NC(=O)c1cc(Oc2ccc(Nc3cc(-c4cccs4)nc(N)n3)cc2)ccn1` [Example 255, 4-(4-{[2-amino-6-(2-thienyl)pyrimidin-4-yl]amino}phenoxy) pyridine-2-carboxamide]: the IC50 was more than 2000 nM.

`Nc1nc(Nc2ccc(Oc3cc(N(CCO)CCO)ccn3)cc2)cc(-c2ccccc2)n1` [Example 108, 2,2′-[(2-{4-[(2-amino-6-phenylpyrimidin-4-yl)amino]phenoxy}pyridin-4-yl)imino]diethanol] gave a half-maximal inhibitory concentration (IC50) of more than 2000 nM.

`CC(C)c1cccc(-c2cc(Nc3cccc(Oc4ccnc(C(N)=O)c4)c3)nc(N)n2)c1` [Example 299, 4-(3-{[2-amino-6-(3-isopropylphenyl)pyrimidin-4-yl]amino}phenoxy) pyridine-2-carboxamide] displayed an IC50 of more than 2000 nM.

Compound `NC(=O)c1cc(Oc2ccc(Nc3cc(-c4ccc(Cl)c(Cl)c4)nc(N)n3)cc2)ccn1` [Example 272, 4-(4-{[2-amino-6-(3,4-dichlorophenyl)pyrimidin-4-yl]amino}phenoxy)pyridine-2-carboxamide] showed an IC50 of more than 2000 nM.

For `Nc1nc(Nc2ccc(Oc3ccnc(C(F)(F)F)c3)cc2)cc(-c2cccc(OC(F)(F)F)c2)n1` [Example 216, 6-[3-(trifluoromethoxy)phenyl]-N4*- (4-{[2-(trifluoromethyl)pyridin-4-yl]oxy}phenyl)pyrimidine-2,4-diamine], the IC50 was more than 2000 nM.

Still in this experiment, the particulars now being: Homo sapiens, HCT-116, 72 h compound exposure, less than or equal to 500 nM.
`CC(C)c1ccc(-c2cc(Nc3ccc(Oc4ccnc(C(F)(F)F)c4)cc3)nc(N)n2)cc1` [Example 209, 6-(4-isopropylphenyl)-N4*-(4-{[2-(trifluoromethyl)pyridin-4-yl]oxy}phenyl)pyrimidine-2,4-diamine] returned an IC50 not above 500 nM.

Compound `Nc1nc(Nc2ccc(Oc3ccnc(N4CCCCC4)c3)cc2)cc(-c2ccccc2)n1` [Example 139, 6-phenyl-N4*-{4-[(2-piperidin-1-ylpyridin-4-yl)oxy]phenyl}pyrimidine-2,4-diamine] displayed an IC50 not above 500 nM.

For `NC(=O)c1cc(Oc2cccc(Nc3cc(-c4ccsc4)nc(N)n3)c2)ccn1` [Example 298, 4-(3-{[2-amino-6-(3-thienyl)pyrimidin-4-yl]amino}phenoxy) pyridine-2-carboxamide], the IC50 was not above 500 nM.

In turn, `COc1ccc(-c2cc(Nc3ccc(Oc4ccnc(C)c4)cc3)nc(N)n2)cn1` [Example 312, 6-(6-methoxypyridin-3-yl)-N4*-{4-[(2-methylpyridin-4-yl)oxy]phenyl} pyrimidine-2,4-diamine] showed an IC50 not above 500 nM.

Take `Nc1nc(Nc2ccc(Oc3ccnc(C(F)(F)F)c3)cc2)cc(-c2ccc(F)cc2)n1` [Example 196, 6-(4-fluorophenyl)-N4*-(4-{[2-(trifluoromethyl)pyridin-4-yl]oxy}phenyl)pyrimidine-2,4-diamine]: the IC50 was not above 500 nM.

`Cc1cc(Oc2ccc(Nc3cc(-c4cccc(N)c4)nc(N)n3)cc2)ccn1` [Example 320, 6-(3-aminophenyl)-N4*-{4-[(2-methylpyridin-4-yl)oxy]phenyl} pyrimidine-2,4-diamine] gave an IC50 not above 500 nM.

In the case of `N#Cc1cc(Oc2ccc(Nc3cc(-c4ccc[nH]4)nc(N)n3)cc2)ccn1` [Example 219, 4-(4-{[2-amino-6-(1H-pyrrol-2-yl)pyrimidin-4-yl]amino}phenoxy) pyridine-2-carbonitrile hydrochloride], the IC50 was not above 500 nM.

For the compound `Nc1nc(Nc2ccc(Oc3ccnc(C(F)(F)F)c3)cc2)cc(-c2ccsc2)n1` [Example 214, 6-(3-thienyl)-N4*-(4-{[2-(trifluoromethyl)pyridin-4-yl]oxy}phenyl)pyrimidine-2,4-diamine], the IC50 was not above 500 nM.

With `N#Cc1cc(Oc2ccc(Nc3cc(-c4cccc(F)c4)nc(N)n3)cc2)ccn1` [Example 240, 4-(4-{[2-amino-6-(3-fluorophenyl)pyrimidin-4-yl]amino}phenoxy) pyridine-2-carbonitrile], the IC50 is not above 500 nM.

As for `Cc1ccc(-c2cc(Nc3ccc(Oc4ccnc(C(N)=O)c4)cc3)nc(N)n2)cc1` [Example 267, 4-(4-{[2-amino-6-(4-methylphenyl)pyrimidin-4-yl]amino}phenoxy) pyridine-2-carboxamide], the IC50 is not above 500 nM.

In turn, `COc1cc(-c2cc(Nc3ccc(Oc4ccnc(C(F)(F)F)c4)cc3)nc(N)n2)ccc1N` [Example 153, 6-(4-amino-3-methoxyphenyl)-N4*-(4-{[2-(trifluoromethyl)pyridin-4-yl]oxy}phenyl) pyrimidine-2,4-diamine] displayed an IC50 not above 500 nM.

Compound `Nc1ccc(Oc2ccc(Nc3cc(-c4ccccc4)nc(N)n3)cc2)cc1` [Example 62, N^4-[4-(4-aminophenoxy)phenyl]-6-phenylpyrimidine-2,4-diamine] registered an IC50 not above 500 nM.

On to `COCCN(C)c1cc(Oc2cccc(Nc3cc(-c4ccccc4)nc(N)n3)c2)ccn1` [Example 124, N4*-[3-({2-[(2-methoxyethyl)(methyl)amino]pyridin-4-yl}oxy)phenyl]-6-phenylpyrimidine-2,4-diamine], for which the IC50 was not above 500 nM.

`COc1cc(-c2cc(Nc3ccc(Oc4ccnc(C(N)=O)c4)cc3)nc(N)n2)ccc1N` [Example 173, 4-(4-{[2-amino-6-(4-amino-3-methoxyphenyl)pyrimidin-4-yl]amino}phenoxy)pyridine-2-carboxamide] came in with an IC50 not above 500 nM.

Turning to `N#Cc1cc(Oc2ccc(Nc3cc(-c4ccccc4OC(F)(F)F)nc(N)n3)cc2)ccn1` [Example 275, 4-[4-({2-amino-6-[2-(trifluoromethoxy)phenyl]pyrimidin-4-yl}amino)phenoxy]pyridine-2-carbonitrile], the IC50 is not above 500 nM.

As to `Nc1nc(Nc2ccc(Oc3ccnc(C(F)(F)F)c3)cc2)cc(-c2ccc(N)c(F)c2)n1` [Example 177, 6-(4-amino-3-fluorophenyl)-N4*-(4-{[2-(trifluoromethyl)pyridin-4-yl]oxy}phenyl)pyrimidine-2,4-diamine], the IC50 was not above 500 nM.

For `Cc1ccccc1-c1cc(Nc2ccc(Oc3ccnc(C(F)(F)F)c3)cc2)nc(N)n1` [Example 202, 6-(2-methylphenyl)-N4*-(4-{[2-(trifluoromethyl)pyridin-4-yl]oxy}phenyl)pyrimidine-2,4-diamine], the IC50 was not above 500 nM.

The compound `Nc1nc(Nc2ccc(Oc3ccnc(C(F)(F)F)c3)cc2)cc(-c2cccc(F)c2)n1` [Example 192, 6-(3-fluorophenyl)-N4*-(4-{[2-(trifluoromethyl)pyridin-4-yl]oxy}phenyl)pyrimidine-2,4-diamine] had an IC50 not above 500 nM.

The compound `NC(=O)c1cc(Oc2ccc(Nc3cc(-c4ccsc4)nc(N)n3)cc2)ccn1` [Example 269, 4-(4-{[2-amino-6-(3-thienyl)pyrimidin-4-yl]amino}phenoxy) pyridine-2-carboxamide] came in with an IC50 not above 500 nM.

In the case of `Cc1cccc(-c2cc(Nc3ccc(Oc4ccnc(C#N)c4)cc3)nc(N)n2)c1` [Example 250, 4-(4-{[2-amino-6-(3-methylphenyl)pyrimidin-4-yl]amino}phenoxy) pyridine-2-carbonitrile], the IC50 was not above 500 nM.
